The results in this text go back to patent US11584765B2 (priority 2017, dated 2023).

Structures are written as SMILES. A value given as a limit tells only on which side of the number the result lay.

In this test the test system is C57BL/6 mice. The experiment in a line: animal or person. The conditions noted are these: Mus musculus, sc, 0.5 h, s.c. administration, 30 min, 55° C. water, read-out: ED50 (mg/kg) at 30 min on C57BL/6 mice in Warm-water Tail-flick Test. The test is classed as in vivo. For orientation: Thermal pain tests record how soon the animal reacts.
`CCOCC1(CCc2ccccc2)CCN(Cc2ccc(C)nc2)C1` (centres unmarked) [Compound 276, 5-((3-(ethoxymethyl)-3-phenethylpyrrolidin-1-yl)methyl)-2-methylpyridine]: the ED50 is less than 10 mg/kg.
With `CCOCC1(CCc2ccsc2)CCN(Cc2ccc(C)nc2)C1` (stereo not drawn) [Compound 277, 5-((3-(ethoxymethyl)-3-(2-(thiophen-3-yl)ethyl)pyrrolidin-l-yl)methyl)-2-methylpyridine], the ED50 was less than 10 mg/kg.
The value for `CCOCC1(CCc2ccsc2C)CCN(Cc2cnn(C)c2)CC1` [Compound 278, 4-(ethoxymethyl)-1-((1-methyl-1H-pyrazol-4-yl)methyl)-4-(2-(2-methylthiophen-3-yl)ethyl)piperidine] was less than 10 mg/kg; that for `CCOCC1(CCc2csc(C)c2)CCN(Cc2cnn(C)c2)CC1` [Compound 279, 4-(ethoxymethyl)-1-((1-methyl-1H-pyrazol-4-yl)methyl)-4-(2-(5-methylthiophen-3-yl)ethyl)piperidine] was more than 10 mg/kg; that for `CCOCC1(CCc2cscc2C)CCN(Cc2cnn(C)c2)CC1` [Compound 280, 4-(ethoxymethyl)-1-((1-methyl-1H-pyrazol-4-yl)methyl)-4-(2-(4-methylthiophen-3-yl)ethyl)piperidine] was less than 10 mg/kg.
Regarding `CCOCC1(CCc2cc(C)sc2C)CCN(Cc2cnn(C)c2)CC1` [Compound 281, 4-(2-(2,5-dimethylthiophen-3-yl)ethyl)-4-(ethoxymethyl)-1-((1-methyl-1H-pyrazol-4-yl)methyl)piperidine], the ED50 is more than 10 mg/kg.
Then `CCOCC1(CCc2c(C)csc2C)CCN(Cc2cnn(C)c2)CC1` [Compound 282, 4-(2-(2,4-dimethylthiophen-3-yl)ethyl)-4-(ethoxymethyl)-1-((1-methyl-1H-pyrazol-4-yl)methyl)piperidine], with more than 10 mg/kg; and `CCOCC1(CCc2sccc2C)CCN(Cc2cccnc2)C1` (centres unmarked) [Compound 283, 3-((3-(ethoxymethyl)-3-(2-(3-methylthiophen-2-yl)ethyl)pyrrolidin-1-yl)methyl)pyridine], with less than 10 mg/kg.
The value for `CCOCC1(CCc2cc(C)cs2)CCN(Cc2cccnc2)C1` (centres unmarked) [Compound 284, 3-((3-(ethoxymethyl)-3-(2-(4-methylthiophen-2-yl)ethyl)pyrrolidin-1-yl)methyl)pyridine] was less than 10 mg/kg; that for `CCOCC1(CCc2ccc(C)s2)CCN(Cc2cccnc2)C1` (centres unmarked) [Compound 285, 3-((3-(ethoxymethyl)-3-(2-(5-methylthiophen-2-yl)ethyl)pyrrolidin-1-yl)methyl)pyridine] was more than 10 mg/kg; that for `CCOCC1(CCc2ccsc2C)CCN(Cc2cccnc2)C1` (centres unmarked) [Compound 286, 3-((3-(ethoxymethyl)-3-(2-(2-methylthiophen-yl)ethyl)pyrrolidin-1-yl)methyl)pyridine] was less than 10 mg/kg.
Take `CCOCC1(CCc2csc(C)c2)CCN(Cc2cccnc2)C1` (centres unmarked) [Compound 287, 3-((3-(ethoxymethyl)-3-(2-(5-methylthiophen-yl)ethyl)pyrrolidin-1-yl)methyl)pyridine]: the ED50 was less than 10 mg/kg.
`CCOCC1(CCc2cscc2C)CCN(Cc2cccnc2)C1` (centres unmarked) [Compound 288, 3-((3-(ethoxymethyl)-3-(2-(4-methylthiophen-yl)ethyl)pyrrolidin-1-yl)methyl)pyridine]: the ED50 is less than 10 mg/kg.
The value for `CCOCC1(CCc2ccc(Cl)cc2)CCN(Cc2cccnc2)C1` (centres unmarked) [Compound 289, 3-((3-(4-chlorophenethyl)-3-(ethoxy-methyl)pyrrolidin-1-yl)methyl)pyridine] was more than 10 mg/kg.
Turning to `CCOCC1(CCc2ccc(F)cc2)CCN(Cc2cccnc2)C1` (centres unmarked) [Compound 290, 3-((3-(ethoxy-methyl)-3-(4-fluoro-phenethyl)pyrrolidin-1-yl)methyl)pyridine], the ED50 was less than 10 mg/kg.
Consider `CCOCC1(CCc2ccc(C)cc2)CCN(Cc2cccnc2)C1` (centres unmarked) [Compound 291, 3-((3-(ethoxymethyl)-3-(4-methyl-phenethyl)pyrrolidin-1-yl)methyl)pyridine], for which the ED50 was more than 10 mg/kg.
Consider `CCOCC1(CCc2ccc(OC)cc2)CCN(Cc2cccnc2)C1` (centres unmarked) [Compound 292, 3-((3-(ethoxymethyl)-3-(4-methoxy-phenethyl)pyrrolidin-1-yl)methyl)pyridine], for which the ED50 was more than 10 mg/kg.
Then `C1=CC(C2(CCc3cccs3)CCN(Cc3cccnc3)CC2)OC1` (centres unmarked) [Compound 293, 3-((4-(2,5-dihydrofuran-2-yl)-4-(2-(thiophen-2-yl)ethyl)piperidin-1-yl)methyl)pyridine], with more than 10 mg/kg; and `CCOCC1(CCc2ccccc2)CCN(C(C)c2ccc(C)nc2)C1` (centres unmarked) [Compound 294, 5-(1-(3-(ethoxymethyl)-3-phenethyl-pyrrolidin-1-yl)ethyl)-2-methylpyridine], with less than 10 mg/kg; and `CCOCC1(CCc2ccc(F)cc2)CCN(C(C)c2ccc(C)nc2)C1` (centres unmarked) [Compound 295, 5-(1-(3-(ethoxymethyl)-3-(4-fluoro-phenethyl)pyrrolidin-1-yl)ethyl)-2-methylpyridine], with less than 10 mg/kg.
With `CCOCC1(CCc2ccc(F)cc2)CCN(Cc2ccc(C)nc2)C1` (centres unmarked) [Compound 296, 5-((3-(ethoxymethyl)-3-(4-fluoro-phenethyl)pyrrolidin-1-yl)methyl)-2-methylpyridine], the ED50 was less than 10 mg/kg.
The value for `CCOCC1(CCc2cc(C)cs2)CCN(Cc2ccc(C)nc2)C1` (centres unmarked) [Compound 297, 5-((3-(ethoxymethyl)-3-(2-(4-methylthiophen-2-yl)ethyl)pyrrolidin-1-yl)methyl)-2-methylpyridine] was less than 10 mg/kg; that for `CCOCC1(CCc2ccccc2)CCN(C(CC)c2ccc(C)nc2)C1` (centres unmarked) [Compound 298, 5-(1-(3-(ethoxymethyl)-3-phenethylpyrrolidin-1-yl)propyl)-2-methylpyridine] was less than 10 mg/kg; that for `CCOCC1(CCc2cc(C)cs2)CCN(Cc2ccc(C)nc2)CC1` [Compound 299, 5-((4-(ethoxymethyl)-4-(2-(4-methylthiophen-2-yl)ethyl)piperidin-1-yl)methyl)-2-methylpyridine] was less than 10 mg/kg.
Then `CCOCC1(CCc2ccc(F)s2)CCN(Cc2ccc(C)nc2)C1` (centres unmarked) [Compound 300, 5-((3-(ethoxymethyl)-3-(2-(5-fluorothiophen-2-yl)ethyl)pyrrolidin-1-yl)methyl)-2-methylpyridine], with less than 10 mg/kg; and `CCOCC1(CCc2cc3ccccc3s2)CCN(Cc2ccc(C)nc2)C1` (centres unmarked) [Compound 301, 5-((3-(2-(benzo[b]thiophen-2-yl)ethyl)-3-(ethoxy-methyl)pyrrolidin-1-yl)methyl)-2-methylpyridine], with more than 10 mg/kg; and `CCOCC1(CCc2csc3ccccc23)CCN(Cc2ccc(C)nc2)C1` (centres unmarked) [Compound 302, 5-((3-(2-(benzo[b]thiophen-3-yl)ethyl)-3-(ethoxy-methyl)pyrrolidin-1-yl)methyl)-2-methylpyridine], with less than 10 mg/kg.
Consider `CCOC[C@@]1(CCc2ccccc2)CCN(C(C)c2ccc(C)nc2)C1.Cl` (stereo partly drawn) [Compound 303, 5-(1-((S)-3-(ethoxymethyl)-3-phenethylpyrrolidin-1-yl)ethyl)-2-methylpyridine HCl], for which the ED50 was less than 10 mg/kg.
As for `CCOCC1(CCc2ccc(C)s2)CCN(Cc2ccc(C)nc2)CC1` [Compound 304, 5-((4-(ethoxymethyl)-4-(2-(5-methylthiophen-2-yl)ethyl)piperidin-1-yl)methyl)-2-methylpyridine], the ED50 is less than 10 mg/kg.
